In article PMC12147132 (2025):

What was measured:
[1] = test system: AD-aptamer subunits L1F + L2Q (DNA, aptamer) ATAACGCATTTTGTTATGCGGAGGAAGGTAT/AATGCGTTATTAGAATT/ATACCTGGGGGAGTATTAACATGTTCCATCTT/TTAAATCAAGATGGAAC; assay: not given in the source (Figure S2)
[2] = test system: AA' (DNA, aptamer) GTCCTCAGCGATTACTATGCGGAGGAAGGTAT/ATACCTGGGGGAGTATTAGTACACCCATGTTTCAGT; assay: DNAzyme substrate cleavage fluorescence; details: Mg2+; qualitative; AD 4-5 mM with ADA present
[3] = test system: BA' (DNA, aptamer) CTGTTCAGCGATTACTATGCGGAGGAAGGTAT/ATACCTGGGGGAGTATTAGTACACCCATGTTTCAGT; assay: DNAzyme substrate cleavage fluorescence; details: Mg2+; qualitative; AD 4-5 mM with ADA present
[4] = test system: AD-aptamer subunits L1F + L2Q (DNA, aptamer) ATAACGCATTTTGTTATGCGGAGGAAGGTAT/AATGCGTTATTAGAATT/ATACCTGGGGGAGTATTAACATGTTCCATCTT/TTAAATCAAGATGGAAC; assay: not stated in material (Figure S4)
[5] = test system: BB' (DNA, aptamer) CTGTTCAGCGATTACTATGCGGAGGAAGGTAT/ATACCTGGGGGAGTATTAGTACACCCATGTTCCTGA; assay: DNAzyme substrate cleavage fluorescence; details: Mg2+; qualitative; AD 4-5 mM with ADA present
[6] = test system: D1/D2 (AD-stabilized Mg2+-dependent DNAzyme; same sequences as constituent AB') (DNA, aptamer) GTCCTCAGCGATTACTATGCGGAGGAAGGTAT/ATACCTGGGGGAGTATTAGTACACCCATGTTCCTGA; assay: DNAzyme substrate cleavage fluorescence; details: qualitative, AD 3-5 mM with ADA present
[7] = highest concentration not in material

Nc1nc2c(ncn2[C@@H]2O[C@H](COP(=O)(O)OP(=O)(O)OP(=O)(O)O)[C@@H](O)[C@H]2O)c(=O)[nH]1
binding [1, 7]: no

Cc1cn([C@H]2C[C@H](O)[C@@H](COP(=O)(O)OP(=O)(O)OP(=O)(O)O)O2)c(=O)[nH]c1=O
binding [1, 7]: no

Nc1ncnc2c1ncn2[C@@H]1O[C@H](COP(=O)(O)OP(=O)(O)O)[C@@H](O)[C@H]1O
binding ([1]; qualitative): yes

Nc1ncnc2c1ncn2[C@@H]1O[C@H](COP(=O)(O)OP(=O)(O)OP(=O)(O)O)[C@@H](O)[C@H]1O
binding ([1]; qualitative): yes

O=c1ccn([C@@H]2O[C@H](COP(=O)(O)OP(=O)(O)OP(=O)(O)O)[C@@H](O)[C@H]2O)c(=O)[nH]1
binding [1, 7]: no

Nc1ncnc2c1ncn2[C@@H]1O[C@H](CO)[C@@H](O)[C@H]1O
binding [2]: yes | binding [3]: yes | Kd ([4]; not perturbed by ADA or inosine): 11.8 ± 2.3 µM | binding [5]: yes | binding [6]: yes

O=c1[nH]cnc2c1ncn2[C@@H]1O[C@H](CO)[C@@H](O)[C@H]1O
binding [4, 7]: no

Nc1ncnc2c1ncn2[C@@H]1O[C@H](COP(=O)(O)O)[C@@H](O)[C@H]1O
binding ([1]; qualitative): yes

Nc1ccn([C@@H]2O[C@H](COP(=O)(O)OP(=O)(O)OP(=O)(O)O)[C@@H](O)[C@H]2O)c(=O)n1
binding [1, 7]: no
